In PMC11243693, “Synthesis and Biological Evaluation of New Compounds with Nitroimidazole Moiety” (Molecules, 2024):

SMILES | melting point
Cn1cc([N+](=O)[O-])nc1C(=O)NN=Cc1ccccc1F [Compound 22, N’-[(2-fluorophenyl)methylidene]-1-methyl-4-nitro-1H-imidazole-2-carbohydrazide] | 214 to 217 °C
COc1ccccc1C=NNC(=O)c1nc([N+](=O)[O-])cn1C [Compound 23, N’-[(2-methoxyphenyl)methylidene]-1-methyl-4-nitro-1H-imidazole-2-carbohydrazide] | 205 to 208 °C
COc1ccc(C=NNC(=O)c2nc([N+](=O)[O-])cn2C)cc1 [Compound 25, N’-[(4-methoxyphenyl)methylidene]-1-methyl-4-nitro-1H-imidazole-2-carbohydrazide] | 224 to 226 °C
Cn1cc([N+](=O)[O-])nc1C(=O)NN=Cc1ccc(C(F)(F)F)cc1 [Compound 26, 1-methyl-4-nitro-N’-[(4-trifluoromethylphenyl)methylidene]-1H-imidazole-2-carbohydrazide] | 208 to 210 °C

More lines, now with the values ahead:

melting point | SMILES
276 to 278 °C | Cn1cc([N+](=O)[O-])nc1C(=O)NN=Cc1cccc(Cl)c1 [Compound 21, N’-[(3-chlorophenyl)methylidene]-1-methyl-4-nitro-1H-imidazole-2-carbohydrazide]
208 to 210 °C | COc1cccc(C=NNC(=O)c2nc([N+](=O)[O-])cn2C)c1 [Compound 24, N’-[(3-methoxyphenyl)methylidene]-1-methyl-4-nitro-1H-imidazole-2-carbohydrazide]
208 to 210 °C | Cn1cc([N+](=O)[O-])nc1C(=O)NN=Cc1cccc(O)c1 [Compound 27, N’-[(3-hydroxyphenyl)methylidene]-1-methyl-4-nitro-1H-imidazole-2-carbohydrazide]
